Experimental data published in PubChem BioAssay (NCI).
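Test compounds were applied to cells in 96-well plates for 48 hours at 5 doses. TGI marks complete inhibition of growth.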

Legend:
Experiment in all cases: NCI-60 cell line screen, 48 h
SW-620 colon = system: SW-620 colon
SK-MEL-5 melanoma = system: SK-MEL-5 melanoma
KM20L2 colon = system: KM20L2 colon
XF 498 CNS = system: XF 498 CNS
HOP-18 NSCLC = system: HOP-18 NSCLC
OVCAR-4 ovarian = system: OVCAR-4 ovarian
SF-539 CNS = system: SF-539 CNS
RXF 393 renal = system: RXF 393 renal
COLO 205 colon = system: COLO 205 colon
IGROV1 ovarian = system: IGROV1 ovarian
HCC-2998 colon = system: HCC-2998 colon
HL-60(TB) leukemia = system: HL-60(TB) leukemia
HOP-92 NSCLC = system: HOP-92 NSCLC
MALME-3M melanoma = system: MALME-3M melanoma
SN12C renal = system: SN12C renal
OVCAR-8 ovarian = system: OVCAR-8 ovarian
A498 renal = system: A498 renal
DMS 114 small cell lung = system: DMS 114 small cell lung
SNB-78 CNS = system: SNB-78 CNS
NCI-H460 lung = system: NCI-H460 lung
TK-10 renal = system: TK-10 renal
SF-295 CNS = system: SF-295 CNS
SK-MEL-2 melanoma = system: SK-MEL-2 melanoma
MOLT-4 leukemia = system: MOLT-4 leukemia
M14 melanoma = system: M14 melanoma
CCRF-CEM leukemia = system: CCRF-CEM leukemia
A549 NSCLC = system: A549 NSCLC
NCI-H226 lung = system: NCI-H226 lung
RPMI-8226 leukemia = system: RPMI-8226 leukemia
786-0 renal = system: 786-0 renal
K-562 leukemia = system: K-562 leukemia
UO-31 renal = system: UO-31 renal
LOX IMVI melanoma = system: LOX IMVI melanoma
DMS 273 small cell lung = system: DMS 273 small cell lung
LXFL 529 NSCLC = system: LXFL 529 NSCLC
OVCAR-5 ovarian = system: OVCAR-5 ovarian
UACC-257 melanoma = system: UACC-257 melanoma
OVCAR-3 ovarian = system: OVCAR-3 ovarian
ACHN renal = system: ACHN renal
U251 CNS = system: U251 CNS
CAKI-1 renal = system: CAKI-1 renal
M19-MEL melanoma = system: M19-MEL melanoma
HCT-116 colon = system: HCT-116 colon
HT29 colon = system: HT29 colon
SK-MEL-28 melanoma = system: SK-MEL-28 melanoma
SR leukemia = system: SR leukemia
NCI-H23 lung = system: NCI-H23 lung
UACC-62 melanoma = system: UACC-62 melanoma
EKVX NSCLC = system: EKVX NSCLC
DLD-1 colon = system: DLD-1 colon
HOP-62 NSCLC = system: HOP-62 NSCLC
SF-268 CNS = system: SF-268 CNS
SNB-75 CNS = system: SNB-75 CNS
HCT-15 colon = system: HCT-15 colon
KM12 colon = system: KM12 colon
SK-OV-3 ovarian = system: SK-OV-3 ovarian
RXF-631 renal = system: RXF-631 renal
SNB-19 CNS = system: SNB-19 CNS

Measured: TGI

COC(=O)C1=C(OC)c2cc3c(cc2C(c2cc(OC)c(OC)c(OC)c2)C1C(=O)OC)OCO3 (centres undefined)
> 100 µM: SW-620 colon | SK-MEL-5 melanoma | KM20L2 colon | XF 498 CNS | HOP-18 NSCLC | OVCAR-4 ovarian | SF-539 CNS | RXF 393 renal | COLO 205 colon | IGROV1 ovarian | HCC-2998 colon | HL-60(TB) leukemia | HOP-92 NSCLC | MALME-3M melanoma | SN12C renal | OVCAR-8 ovarian | A498 renal | DMS 114 small cell lung | SNB-78 CNS | NCI-H460 lung | TK-10 renal | SF-295 CNS | SK-MEL-2 melanoma | MOLT-4 leukemia | M14 melanoma | CCRF-CEM leukemia | A549 NSCLC | NCI-H226 lung | RPMI-8226 leukemia | 786-0 renal | K-562 leukemia | UO-31 renal | LOX IMVI melanoma | DMS 273 small cell lung | LXFL 529 NSCLC | OVCAR-5 ovarian | UACC-257 melanoma | OVCAR-3 ovarian | ACHN renal | U251 CNS | CAKI-1 renal | M19-MEL melanoma | HCT-116 colon | HT29 colon | SK-MEL-28 melanoma | SR leukemia | NCI-H23 lung | UACC-62 melanoma | EKVX NSCLC | DLD-1 colon | HOP-62 NSCLC | SF-268 CNS | SNB-75 CNS | HCT-15 colon | KM12 colon | SK-OV-3 ovarian

O=C(N/N=C(/c1nc2ccc(Cl)cc2[nH]c1=O)C(O)c1ccc(Cl)cc1Cl)c1ccncc1 (centres undefined)
> 100 µM: RXF-631 renal | SW-620 colon | SK-MEL-5 melanoma | KM20L2 colon | SF-539 CNS | RXF 393 renal | COLO 205 colon | IGROV1 ovarian | HCC-2998 colon | HL-60(TB) leukemia | HOP-92 NSCLC | MALME-3M melanoma | OVCAR-8 ovarian | A498 renal | DMS 114 small cell lung | SNB-78 CNS | NCI-H460 lung | TK-10 renal | SF-295 CNS | SK-MEL-2 melanoma | SNB-19 CNS | MOLT-4 leukemia | M14 melanoma | CCRF-CEM leukemia | A549 NSCLC | NCI-H226 lung | RPMI-8226 leukemia | 786-0 renal | K-562 leukemia | UO-31 renal | LOX IMVI melanoma | DMS 273 small cell lung | LXFL 529 NSCLC | OVCAR-5 ovarian | UACC-257 melanoma | OVCAR-3 ovarian | ACHN renal | U251 CNS | CAKI-1 renal | M19-MEL melanoma | HCT-116 colon | HT29 colon | SK-MEL-28 melanoma | NCI-H23 lung | UACC-62 melanoma | EKVX NSCLC | DLD-1 colon | HOP-62 NSCLC | SF-268 CNS | SNB-75 CNS | HCT-15 colon | KM12 colon | SK-OV-3 ovarian
